One assay deals with T1, LRRK2 WT (Homo sapiens, UniProt Q5S007).
T1 construct: purchased Life Technologies PR8604B
The experiment in a line: LRRK2 Kinase Activity Assay (LanthaScreen TR-FRET), wild type. To be noted: recombinant wild type LRRK2, 25 μM ATP, 400 nM LRRKtide, 60 min; class symbols. The assay is classed as biochemical. The protocol:
(§1) LRRK2 kinase activity was measured using a LanthaScreen™ Kinase Activity Assay from ThermoFisher Scientific. Recombinant wild type or G2019S-LRRK2 protein (Life Technologies, PR8604B or PV4881, respectively), was incubated with a fluorescein-labeled peptide substrate called LRRKtide that is based upon ezrin/radixin/moesin (ERM) (Life Technologies, PV4901) in the presence of ATP and serially diluted compound. […] Compound-dependent inhibition of the TR-FRET signal was used to generate a concentration-response curve for IC50 determination.
(§2) After 60 min incubation at room temperature, the reaction was stopped by addition of 10 μL of 2×stop solution containing a final concentration of 2 nM anti-pERM antibody and 10 mM EDTA.
Background: In TR-FRET formats the signal depends on donor and acceptor labels being close together.

In another assay the target is T2, LRRK2 G2019S (Homo sapiens, UniProt Q5S007, G2019S).
T2 construct: purchased Life Technologies PV4881
Briefly: LRRK2 Kinase Activity Assay (LanthaScreen TR-FRET), G2019S. The assay is classed as biochemical. To be noted: recombinant G2019S-LRRK2, 25 μM ATP, 400 nM LRRKtide, 60 min; class symbols. How it is done:
as §1, §2

Here are results for 27 compounds from patent publication US20230148214A1, “INDAZOLES AND AZAINDAZOLES AS LRRK2 INHIBITORS” (ESCAPE Bio, Inc., priority 2020, published 2023).

Each structure is given as a SMILES string.

T1 sequence (Q5S007 whole entry): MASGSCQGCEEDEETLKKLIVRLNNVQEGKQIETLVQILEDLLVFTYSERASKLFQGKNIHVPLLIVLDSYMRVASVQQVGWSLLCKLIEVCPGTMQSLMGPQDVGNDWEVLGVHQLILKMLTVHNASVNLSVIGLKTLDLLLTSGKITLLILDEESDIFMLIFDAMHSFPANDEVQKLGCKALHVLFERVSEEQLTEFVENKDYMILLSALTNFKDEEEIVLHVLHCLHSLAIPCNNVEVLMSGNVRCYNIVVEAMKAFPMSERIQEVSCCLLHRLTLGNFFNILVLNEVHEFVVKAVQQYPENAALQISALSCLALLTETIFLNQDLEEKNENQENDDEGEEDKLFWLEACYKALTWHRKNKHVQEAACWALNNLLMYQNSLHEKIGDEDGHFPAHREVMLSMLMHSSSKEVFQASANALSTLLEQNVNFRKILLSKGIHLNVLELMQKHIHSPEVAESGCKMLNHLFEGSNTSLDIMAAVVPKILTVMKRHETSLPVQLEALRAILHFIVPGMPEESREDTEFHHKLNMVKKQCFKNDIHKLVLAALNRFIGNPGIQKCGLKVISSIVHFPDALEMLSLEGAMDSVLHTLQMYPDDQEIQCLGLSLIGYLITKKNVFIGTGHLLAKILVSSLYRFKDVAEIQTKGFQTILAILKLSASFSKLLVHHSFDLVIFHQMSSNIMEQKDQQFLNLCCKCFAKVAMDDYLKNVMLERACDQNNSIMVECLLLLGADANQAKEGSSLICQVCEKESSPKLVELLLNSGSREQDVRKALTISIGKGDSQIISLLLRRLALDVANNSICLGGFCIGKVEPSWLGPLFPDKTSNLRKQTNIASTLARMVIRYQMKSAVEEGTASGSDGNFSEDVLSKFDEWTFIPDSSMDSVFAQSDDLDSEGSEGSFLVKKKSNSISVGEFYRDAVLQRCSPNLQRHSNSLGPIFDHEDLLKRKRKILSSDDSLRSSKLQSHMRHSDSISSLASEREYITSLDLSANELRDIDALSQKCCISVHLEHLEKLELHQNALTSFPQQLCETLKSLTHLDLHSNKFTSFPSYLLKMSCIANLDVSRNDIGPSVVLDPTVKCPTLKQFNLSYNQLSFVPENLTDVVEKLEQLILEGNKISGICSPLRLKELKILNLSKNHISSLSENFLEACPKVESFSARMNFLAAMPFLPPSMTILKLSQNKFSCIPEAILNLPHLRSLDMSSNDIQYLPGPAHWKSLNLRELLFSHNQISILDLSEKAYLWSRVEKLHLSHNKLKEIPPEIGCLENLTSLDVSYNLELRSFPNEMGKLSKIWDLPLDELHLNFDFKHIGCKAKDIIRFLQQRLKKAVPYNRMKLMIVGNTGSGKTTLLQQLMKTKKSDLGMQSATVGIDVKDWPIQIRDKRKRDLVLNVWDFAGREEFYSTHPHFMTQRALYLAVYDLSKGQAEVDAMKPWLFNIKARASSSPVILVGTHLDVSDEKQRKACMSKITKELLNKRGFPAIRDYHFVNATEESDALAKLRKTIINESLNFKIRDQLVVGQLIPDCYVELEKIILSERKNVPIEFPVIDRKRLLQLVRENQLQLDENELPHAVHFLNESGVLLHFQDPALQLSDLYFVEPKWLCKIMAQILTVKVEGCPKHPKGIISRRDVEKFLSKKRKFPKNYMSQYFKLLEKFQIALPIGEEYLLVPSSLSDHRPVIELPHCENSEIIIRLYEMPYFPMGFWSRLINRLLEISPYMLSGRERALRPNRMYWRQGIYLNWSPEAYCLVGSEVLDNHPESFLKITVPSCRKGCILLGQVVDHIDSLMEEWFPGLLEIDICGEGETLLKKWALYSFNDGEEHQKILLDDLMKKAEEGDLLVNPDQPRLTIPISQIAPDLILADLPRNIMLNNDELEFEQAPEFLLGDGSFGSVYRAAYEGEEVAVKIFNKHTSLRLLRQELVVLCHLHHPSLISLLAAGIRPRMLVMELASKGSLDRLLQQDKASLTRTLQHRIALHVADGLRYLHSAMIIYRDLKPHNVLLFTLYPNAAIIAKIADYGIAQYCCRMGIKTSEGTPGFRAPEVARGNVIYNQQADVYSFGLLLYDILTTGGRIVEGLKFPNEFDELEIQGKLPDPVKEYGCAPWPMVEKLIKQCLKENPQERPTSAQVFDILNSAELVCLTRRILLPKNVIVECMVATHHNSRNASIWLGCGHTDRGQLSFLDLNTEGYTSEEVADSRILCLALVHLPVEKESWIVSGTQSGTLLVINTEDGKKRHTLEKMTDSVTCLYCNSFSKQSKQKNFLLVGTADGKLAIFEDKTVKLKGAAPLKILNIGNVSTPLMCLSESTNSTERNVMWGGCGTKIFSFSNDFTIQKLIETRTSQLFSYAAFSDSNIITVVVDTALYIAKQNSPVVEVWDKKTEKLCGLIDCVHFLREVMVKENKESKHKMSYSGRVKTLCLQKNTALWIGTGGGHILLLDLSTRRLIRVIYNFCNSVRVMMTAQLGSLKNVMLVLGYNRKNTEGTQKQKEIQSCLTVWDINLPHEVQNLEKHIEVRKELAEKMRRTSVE
T2 sequence (Q5S007 whole entry G2019S): as the sequence (Q5S007 whole entry) above, with G2019S counted along it

Broadly, the IC50 is the midpoint of a concentration-inhibition curve. As to `N#Cc1cnc2c(c1)CCC[C@H]2Nc1ccc2[nH]nc(-c3cnco3)c2c1` (single isomer, unassigned) [Example 120, enantiomer 2, 8-((3-(Oxazol-5-yl)-1H-indazol-5-yl)amino)-5,6,7,8-tetrahydroquinoline-3-carbonitrile], the IC50 at LRRK2 WT is below 100 nM.

For `CCc1cc(-c2n[nH]c3ccc(O[C@@H]4CCCc5cc(C#N)cnc54)cc23)ccn1` (single isomer, unassigned) [Example 121, enantiomer 2, 8-((3-(2-Ethylpyridin-4-yl)-1H-indazol-5-yl)oxy)-5,6,7,8-tetrahydroquinoline-3-carbonitrile], the IC50 at LRRK2 WT was below 100 nM.

As for `N#Cc1cc2c(cn1)[C@H](Oc1ccc3[nH]nc(-c4cnco4)c3c1)CCC2` (single isomer, unassigned) [Example 122, enantiomer 2, 8-((3-(Oxazol-5-yl)-1H-indazol-5-yl)oxy)-5,6,7,8-tetrahydroisoquinoline-3-carbonitrile], the IC50 on LRRK2 WT is below 100 nM.

Regarding `COc1cc(-c2n[nH]c3ccc(O[C@H]4CCCc5cc(C#N)cnc54)cc23)ccn1` (single isomer, unassigned) [Example 123, enantiomer 2, 8-((3-(2-Methoxypyridin-4-yl)-1H-indazol-5-yl)oxy)-5,6,7,8-tetrahydroquinoline-3-carbonitrile], the IC50 on LRRK2 WT is below 100 nM.

For `N#Cc1ccc2c(c1)CC[C@@H]2Oc1ccc2[nH]nc(C3CC3)c2c1` (single isomer, unassigned) [Example 124, enantiomer 2, 1-((3-Cyclopropyl-1H-indazol-5-yl)oxy)-2,3-dihydro-1H-indene-5-carbonitrile], on LRRK2 G2019S, the IC50 was 100 to 1000 nM.

Take `Cc1c(C#N)ccc2c1CC[C@@H]2Nc1ccc2[nH]nc(I)c2c1` (single isomer, unassigned) [Example 127, enantiomer 2, 1-((3-Iodo-1H-indazol-5-yl)amino)-4-methyl-2,3-dihydro-1H-indene-5-carbonitrile]: at LRRK2 WT, the IC50 lay within 100 to 1000 nM.

With `Cc1n[nH]c2ccc(N[C@H]3CCc4c(C#N)cccc43)cc12` (single isomer, unassigned) [Example 129, enantiomer 2, 1-((3-Methyl-1H-indazol-5-yl)amino)-2,3-dihydro-1H-indene-4-carbonitrile], the IC50 at LRRK2 WT lay within 100 to 1000 nM.

As to `Cc1cc(C#N)cc2c1[C@@H](Nc1ccc3[nH]nc(-c4cnco4)c3c1)CC2` (single isomer, unassigned) [Example 131, enantiomer 2, 7-Methyl-1-((3-(oxazol-5-yl)-1H-indazol-5-yl)amino)-2,3-dihydro-1H-indene-5-carbonitrile], the IC50 at LRRK2 WT was below 100 nM.

Regarding `N#Cc1cc(F)c2c(c1)CC[C@H]2Nc1ccc2[nH]nc(-c3cnco3)c2c1` (single isomer, unassigned) [Example 132, enantiomer 2, 5-((5-Cyano-7-fluoro-2,3-dihydro-1H-inden-1-yl)amino)-3-(oxazol-5-yl)-1H-indazol-2-ium], at LRRK2 WT, the IC50 is below 100 nM.

`N#Cc1cnc2c(c1)CCC[C@@H]2Oc1ccc2[nH]nc(-c3cnn(C(F)F)c3)c2c1` (single isomer, unassigned) [Example 141, enantiomer 2, 8-((3-(1-(Difluoromethyl)-1H-pyrazol-4-yl)-1H-indazol-5-yl)oxy)-5,6,7,8-tetrahydroquinoline-3-carbonitrile]: the IC50 at LRRK2 WT was below 100 nM.

As to `N#Cc1cnc2c(c1)CCC[C@@H]2Nc1ccc2[nH]nc(-c3cncs3)c2c1` (single isomer, unassigned) [Example 142, enantiomer 2, 8-((3-(Thiazol-5-yl)-1H-indazol-5-yl)amino)-5,6,7,8-tetrahydroquinoline-3-carbonitrile], at LRRK2 WT, the IC50 was below 100 nM.

As for `N#Cc1ccc2c(c1Cl)CCC[C@@H]2Nc1ccc2[nH]nc(-c3cnco3)c2c1` (single isomer, unassigned) [Example 143, enantiomer 2, 1-Chloro-5-((3-(oxazol-5-yl)-1H-indazol-5-yl)amino)-5,6,7,8-tetrahydronaphthalene-2-carbonitrile], the concentration for half-maximal inhibition (IC50) at LRRK2 WT was below 100 nM.

In the case of `N#Cc1cnc2c(c1C(F)(F)F)CCC[C@@H]2Nc1ccc2[nH]nc(-c3cnco3)c2c1` (single isomer, unassigned) [Example 145, enantiomer 2, 8-((3-(Oxazol-5-yl)-1H-indazol-5-yl)amino)-4-(trifluoromethyl)-5,6,7,8-tetrahydroquinoline-3-carbonitrile], the IC50 at LRRK2 WT is below 100 nM.

On to `COc1c(C#N)cnc2c1CCC[C@@H]2Nc1ccc2[nH]nc(-c3cnco3)c2c1` (single isomer, unassigned) [Example 146, enantiomer 2, 4-Methoxy-8-((3-(oxazol-5-yl)-1H-indazol-5-yl)amino)-5,6,7,8-tetrahydroquinoline-3-carbonitrile], for which the IC50 at LRRK2 WT is below 100 nM.

Regarding `N#Cc1ccc2c(c1F)CC(F)(F)[C@@H]2Nc1ccc2[nH]nc(-c3cnco3)c2c1` (single isomer, unassigned) [Example 151, enantiomer 2, 2,2,4-Trifluoro-1-((3-(oxazol-5-yl)-1H-indazol-5-yl)amino)-2,3-dihydro-1H-indene-5-carbonitrile], the IC50 at LRRK2 WT was below 100 nM.

Consider `COc1c(C#N)cnc2c1CC[C@@H]2Nc1ccc2[nH]nc(-c3cnco3)c2c1` (single isomer, unassigned) [Example 154, enantiomer 1, 4-Methoxy-7-((3-(oxazol-5-yl)-1H-indazol-5-yl)amino)-6,7-dihydro-5H-cyclopenta[b]pyridine-3-carbonitrile], for which the IC50 at LRRK2 WT lay in the range of 100 to 1000 nM.

Consider `Cc1ncc(-c2n[nH]c3ccc(N[C@@H]4c5ccc(C#N)cc5CC4(F)F)cc23)o1` (single isomer, unassigned) [Example 155, enantiomer 2, 2,2-Difluoro-1-((3-(2-methyloxazol-5-yl)-1H-indazol-5-yl)amino)-2,3-dihydro-1H-indene-5-carbonitrile], for which the IC50 at LRRK2 WT is below 100 nM.

On to `Cc1ncc(-c2n[nH]c3ccc(O[C@H]4CCc5c4ccc(C#N)c5F)cc23)o1` (single isomer, unassigned) [Example 156, enantiomer 2, 4-Fluoro-1-((3-(2-methyloxazol-5-yl)-1H-indazol-5-yl)oxy)-2,3-dihydro-1H-indene-5-carbonitrile], for which, on LRRK2 WT, the IC50 was below 100 nM.

Take `Cc1cc(-c2n[nH]c3ccc(N[C@H]4CCCc5cc(C#N)cnc54)cc23)sn1` (single isomer, unassigned) [Example 158, enantiomer 2, 8-((3-(3-Methylisothiazol-5-yl)-1H-indazol-5-yl)amino)-5,6,7,8-tetrahydroquinoline-3-carbonitrile]: the IC50 on LRRK2 WT was below 100 nM.

For the compound `Cc1ncc(-c2n[nH]c3ccc(N[C@H]4CCCc5cc(C#N)c(C)nc54)cc23)o1` (single isomer, unassigned) [Example 159, enantiomer 2, 2-Methyl-8-((3-(2-methyloxazol-5-yl)-1H-indazol-5-yl)amino)-5,6,7,8-tetrahydroquinoline-3-carbonitrile], the IC50 on LRRK2 WT is below 100 nM.

As for `Cc1ncc(-c2n[nH]c3ccc(O[C@H]4CCc5cc(C#N)c(F)cc54)cc23)o1` (single isomer, unassigned) [Example 160, enantiomer 2, 6-Fluoro-1-((3-(2-methyloxazol-5-yl)-1H-indazol-5-yl)oxy)-2,3-dihydro-1H-indene-5-carbonitrile], at LRRK2 WT, the IC50 is below 100 nM.

Take `N#Cc1cnc2c(n1)CCC[C@@H]2Oc1ccc2[nH]nc(-c3cnco3)c2c1` (single isomer, unassigned) [Example 163, enantiomer 2, 5-[[3-(1,3-Oxazol-5-yl)-1H-indazol-5-yl]oxy]-5,6,7,8-tetrahydroquinoxaline-2-carbonitrile]: the IC50 on LRRK2 WT was below 100 nM.

Consider `Cc1nc2c(c(C)c1C#N)CCC[C@@H]2Nc1ccc2[nH]nc(-c3cnco3)c2c1` (single isomer, unassigned) [Example 164, enantiomer 2, 2,4-Dimethyl-8-[[3-(1,3-oxazol-5-yl)-1H-indazol-5-yl]amino]-5,6,7,8-tetrahydroquinoline-3-carbonitrile], for which the IC50 at LRRK2 WT is below 100 nM.

On to `COc1nc2c(c(C)c1C#N)CCC[C@@H]2Nc1ccc2[nH]nc(-c3cnco3)c2c1` (single isomer, unassigned) [Example 165, enantiomer 2, 2-Methoxy-4-methyl-8-[[3-(1,3-oxazol-5-yl)-1H-indazol-5-yl]amino]-5,6,7,8-tetrahydroquinoline-3-carbonitrile], for which, at LRRK2 WT, the IC50 is below 100 nM.

In the case of `Cc1c(C#N)c(Cl)nc2c1CC[C@@H]2Oc1ccc2[nH]nc(-c3cnco3)c2c1` (single isomer, unassigned) [Example 166, enantiomer 2, 2-Chloro-4-methyl-7-[[3-(1,3-oxazol-5-yl)-1H-indazol-5-yl]oxy]-6,7-dihydro-5H-cyclopenta[b]pyridine-3-carbonitrile], the IC50 on LRRK2 WT is below 100 nM.

Regarding `N#Cc1c(F)cc2c(c1F)CC[C@@H]2Oc1ccc2[nH]nc(-c3cnco3)c2c1` (single isomer, unassigned) [Example 167, enantiomer 2, 4,6-Difluoro-1-[[3-(1,3-oxazol-5-yl)-1H-indazol-5-yl]oxy]-2,3-dihydro-1H-indene-5-carbonitrile], on LRRK2 WT, the half-inhibitory concentration (IC50) was below 100 nM.

With `N#Cc1cc2c(nc1Cl)[C@@H](Oc1ccc3[nH]nc(-c4cnco4)c3c1)CC2` (single isomer, unassigned) [Example 171, enantiomer 2, 2-Chloro-7-[[3-(1,3-oxazol-5-yl)-1H-indazol-5-yl]oxy]-6,7-dihydro-5H-cyclopenta[b]pyridine-3-carbonitrile], at LRRK2 WT, the IC50 is below 100 nM.
